Assays:
GPR120 = biological target: T1, GPR120 (Homo sapiens, UniProt Q5NUL3); test: GPR120 activity, intracellular calcium response in CHO-K1/GPR120/Gα15 cells; type: cell-based; details: CHO-K1/GPR120/Gα15 cells; calcium response; unit inferred; read-out: GPR120 agonistic activity EC50
T1 sequence (Q5NUL3 1-361): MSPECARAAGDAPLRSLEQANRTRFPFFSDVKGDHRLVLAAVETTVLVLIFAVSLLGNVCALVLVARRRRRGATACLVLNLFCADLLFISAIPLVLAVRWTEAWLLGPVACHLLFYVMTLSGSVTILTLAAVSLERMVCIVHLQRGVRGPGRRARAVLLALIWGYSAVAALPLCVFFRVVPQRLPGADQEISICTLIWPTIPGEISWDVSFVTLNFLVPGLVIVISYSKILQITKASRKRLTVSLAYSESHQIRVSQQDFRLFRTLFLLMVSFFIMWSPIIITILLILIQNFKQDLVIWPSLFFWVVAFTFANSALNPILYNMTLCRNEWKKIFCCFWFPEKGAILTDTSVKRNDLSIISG
Procedure: GPR120 activity was measured by intracellular calcium response. CHO-K1/GPR120/Gα15 cells were regularly passaged to maintain optimal cell health and cultured in Ham's F12 supplemented with 10% fetal bovine serum, 200 μg/mL zeocin, and 100 μg/mL hygromycin. Cells were seeded in a 384-well black-wall, clear-bottom plate at a density of 20,000 cell per well in 20 μL of growth medium 18 hours prior to the start of the experiment, and maintained at 37° C./5% CO2. Cells were loaded with calcium-4, and baseline fluorescence readings were obtained from 1 second to 20 seconds using a fluorescent imaging plate reader (FLIPR). At 20 seconds, (+)-KDT501 (5× final concentration) was added to the reading plate, and the fluorescence signal was monitored for 100 seconds (21 seconds to 120 seconds). α-linolenic acid (LA), eicosapentaenoic acid (EPA), and docosahexaenoic acid (DHA) were used as controls. Data acquisition and analysis was performed using ScreenWorks (version 3.1) and exported to Excel. The average fluorescence value for the first 20 seconds was calculated as the baseline reading. The relative fluorescent unit (ΔRFU) intensity values were calculated with the maximal fluorescent units (21 s to 120 s), subtracting the baseline reading. Data analysis wizard written by GenScript was used to analyze EC50. Dose response curves of antagonist were fitted using the GraphPad Prism 4 four parameter logistic equation Y=Bottom+(Top−Bottom)/(1+10^((LogIC50−X)*HillSlope)), where X is the logarithm of concentration and Y is response.

Human DAPK1 = Human DAPK1 (Homo sapiens, UniProt P53355); test: DAPK1 activity, cell free kinase assay; type: biochemical
Chain of Human DAPK1 (P53355 whole entry): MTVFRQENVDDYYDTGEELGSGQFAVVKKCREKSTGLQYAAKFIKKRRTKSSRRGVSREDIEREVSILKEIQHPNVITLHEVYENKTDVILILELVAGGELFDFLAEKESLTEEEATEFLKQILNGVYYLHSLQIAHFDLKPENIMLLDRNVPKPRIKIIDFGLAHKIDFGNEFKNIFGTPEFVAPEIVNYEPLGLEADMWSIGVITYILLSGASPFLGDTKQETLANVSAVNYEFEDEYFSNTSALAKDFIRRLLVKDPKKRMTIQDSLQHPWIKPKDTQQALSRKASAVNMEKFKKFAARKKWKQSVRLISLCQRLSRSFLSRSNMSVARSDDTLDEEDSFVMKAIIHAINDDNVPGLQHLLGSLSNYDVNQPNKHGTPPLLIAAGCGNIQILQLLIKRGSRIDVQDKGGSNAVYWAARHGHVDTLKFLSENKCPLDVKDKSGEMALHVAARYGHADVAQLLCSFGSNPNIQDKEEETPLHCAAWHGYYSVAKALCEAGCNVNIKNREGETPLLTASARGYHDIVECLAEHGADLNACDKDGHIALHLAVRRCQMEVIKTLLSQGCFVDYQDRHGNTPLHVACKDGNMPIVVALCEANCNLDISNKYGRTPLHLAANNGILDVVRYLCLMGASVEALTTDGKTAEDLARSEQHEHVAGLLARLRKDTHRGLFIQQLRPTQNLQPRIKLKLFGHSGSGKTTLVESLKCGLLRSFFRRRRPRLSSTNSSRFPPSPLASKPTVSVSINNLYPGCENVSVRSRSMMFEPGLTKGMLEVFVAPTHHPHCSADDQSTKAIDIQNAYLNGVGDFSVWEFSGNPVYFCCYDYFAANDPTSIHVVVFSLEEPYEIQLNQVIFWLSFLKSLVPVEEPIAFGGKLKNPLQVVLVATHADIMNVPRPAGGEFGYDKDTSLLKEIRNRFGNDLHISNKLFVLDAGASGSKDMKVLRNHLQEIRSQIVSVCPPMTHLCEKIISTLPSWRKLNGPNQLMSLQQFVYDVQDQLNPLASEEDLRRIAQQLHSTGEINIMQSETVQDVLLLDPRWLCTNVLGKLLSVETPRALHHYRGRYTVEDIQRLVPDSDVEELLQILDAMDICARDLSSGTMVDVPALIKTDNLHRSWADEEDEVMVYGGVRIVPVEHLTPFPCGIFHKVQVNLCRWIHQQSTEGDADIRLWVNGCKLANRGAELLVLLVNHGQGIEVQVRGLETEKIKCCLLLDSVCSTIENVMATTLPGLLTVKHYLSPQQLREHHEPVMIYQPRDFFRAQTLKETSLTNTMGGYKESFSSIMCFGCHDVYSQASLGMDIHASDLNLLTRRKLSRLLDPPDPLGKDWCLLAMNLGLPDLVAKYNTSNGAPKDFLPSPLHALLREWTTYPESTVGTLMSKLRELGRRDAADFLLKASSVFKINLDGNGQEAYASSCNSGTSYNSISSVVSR
Procedure: The effect of (+)-KDT501 and (−)-KDT501 on death-associated protein kinase 1 (DAPK1) activity was evaluated.
Human DAPK1 was incubated with 8 mM MOPS, pH 7.0, 0.2 mM EDTA, 250 μM ZIP peptide substrate ([…]), 10 mM MgOAc, and [γ-^33P-ATP] (specific activity approximately 500 cpm/pmol, concentration as required). (+)-KDT501 or (−)-KDT501 at varying concentrations (100, 30, 10, 1, 0.3, 0.1, 0.03, 0.01 μM) were added to the reaction mixture. The reaction was initiated by addition of the MgATP mix. After incubation for 40 minutes at room temperature, the reaction was stopped by addition of 3% phosphoric acid solution. 10 μL of reaction mixture was spotted onto a P30 filtermat, washed three times for five minutes in 75 mM phosphoric acid and once in methanol prior, then dried and subjected to scintillation counting.

[1] = test system: Zucker diabetic fatty (ZDF) rats; test: Glucose and triglyceride levels in a rat diabetes model; type: in vivo
Procedure: 64 six-week-old male Zucker diabetic fatty (ZDF) rats with glucose levels of 175-300 mg/dL were randomized and divided into eight dosing groups: 1) vehicle only (0.5% methylcellulose (w/v), 0.2% Tween 80 (w/v); negative control), 2) (+)-KDT501 25 mg/kg, 3) (+)-KDT501 50 mg/kg, 4) (+)-KDT501 100 mg/kg, 5) (+)-KDT501 200 mg/kg, 6) metformin 200 mg/kg (positive control), 7) metformin 200 mg/kg and (+)-KDT501 100 mg/kg, and 8) pioglitazone 30 mg/kg (positive control). Drugs were administered orally twice a day for 33 days.
Animals were weighed at randomization and once per week thereafter, with administration dosages calculated based on the most recent body weight measurements. Blood samples were collected by tail bleed three days prior to randomization, at randomization, and at days 15 and 29 after the start of treatment. These blood samples were used to perform whole blood glucose evaluations using a glucometer, as well as to measure blood triglyceride levels. Body composition was tested by qNMR on days 2 and 29 after the start of treatment. An oral glucose tolerance test (OGTT) was performed on days 31 and 32 after the start of treatment. Rats underwent an overnight fast prior to OGTT, and tail bleeds for glucose and insulin were performed pre-glucose bolus and at 15, 30, 60, 90, and 120 minutes post-glucose bolus. The glucose bolus was 2 g dextrose/kg of body weight. On day 33, a cardiac puncture was performed for PK analysis.

In the case of `CC(C)CCC(=O)[C@@]1(O)C(O)=C(C(=O)CC(C)C)C(=O)[C@@H]1CCC(C)C.[K]` [(+)-KDT501, (+)-(4S,5R)-3,4-dihydroxy-2-(3-methylbutanoyl)-5-(3-methylbutyl)-4-(4-methylpentanoyl)cyclopent-2-en-1-one potassium salt], the EC50 (GPR120) is reported as 30.3 µM, the “fold difference in DAPK1 IC50 between the two compounds” value (Human DAPK1; (+)-KDT501 versus (−)-KDT501) is reported as ~15 fold and the IC50 (Human DAPK1; cell free assay) is reported as 2.65 µM. The “whole blood glucose levels” value ([1]; 200 mg/kg orally twice a day) was “significant decrease”, the triglyceride levels ([1]; 200 mg/kg orally twice a day, days 15 and 29) was “significant decrease” and the “whole blood glucose levels” value ([1]; 25, 50, or 100 mg/kg orally twice a day) was “nearly the same as those observed in negative control rats”.
